# Values of other authors, collected in PubChem BioAssay AID1259409 (Chemical Carcinogenesis Research Information System (CCRIS), 2018).
# Tested on: rodent chemically induced tumor inhibition, incidence and multiplicity
# Test: CCRIS tumor inhibitor studies
# Conditions: Route [Inhibitor]: ORAL; for outcome: Target Tissue: Type of Lesion: THYROID GLAND: ADENOMA
compound,measurement,setting,value
COC(=O)[C@H](CCSC)NC(C)=O,"tumour outcome (control, treated, inhibition, significance)","Carcinogen: 7,12-DIMETHYLBENZ[A]ANTHRACENE, 57-97-6, Dose [Inhibitor]: 0.06 MMOL/G DIET DAILY FOR 17 WK STARTING 1 WK PRIOR TO CARCINOGEN TREATMENT AND CONTINUING THROUGH THE END OF THE STUDY, Species: RAT, Strain/Sex: SPRAGUE-DAWLEY/FEMALE, Target Tissue: Type of Lesion: MAMMARY GLAND: TUMOR, Dose [Carcinogen]: 12 MG IN 1 ML OLIVE OIL ONCE, Promoter: NONE USED","59%, 75%, -27%, not calculated"
CCNc1nc(Cl)nc(NC(C)C)n1,outcome,"Carcinogen: N-NITROSOBIS(2-HYDROXYPROPYL)AMINE, 53609-64-6, Dose [Inhibitor]: 0, 400 PPM IN DIET FOR 25 WK BEGINNING 9 WK POST CARCINOGEN TREATMENT (STUDY DURATION: 35 WK), Species: RAT, Strain/Sex: F344/FEMALE, Dose [Carcinogen]: 2000 MG/KG 1 WK POST BILATERAL OVARIECTOMY, Promoter: SULFADIMETHOXINE, 122-11-2","0/12 (0%), 0/15 (0%), 0%, not significant"
same,"tumour outcome (control, treated, inhibition, significance)","Carcinogen: N-NITROSOBIS(2-HYDROXYPROPYL)AMINE, 53609-64-6, Dose [Inhibitor]: 0, 400 PPM IN DIET FOR 25 WK BEGINNING 9 WK POST CARCINOGEN TREATMENT (STUDY DURATION: 35 WK), Species: RAT, Strain/Sex: F344/FEMALE, Target Tissue: Type of Lesion: THYROID GLAND: CARCINOMA, Dose [Carcinogen]: 2000 MG/KG 1 WK POST BILATERAL OVARIECTOMY, Promoter: SULFADIMETHOXINE, 122-11-2","10/12 (83%), 9/15 (60%), 28%, not significant"
same,outcome,"Carcinogen: N-NITROSOBIS(2-HYDROXYPROPYL)AMINE, 53609-64-6, Dose [Inhibitor]: 0, 400 PPM IN DIET FOR 27 WK BEGINNING 9 WK POST CARCINOGEN TREATMENT (STUDY DURATION: 37 WK), Species: RAT, Strain/Sex: F344/FEMALE, Dose [Carcinogen]: 2000 MG/KG BW 1 WK POST BILATERAL OVARIECTOMY, Promoter: SULFADIMETHOXINE, 122-11-2","0/12 (0%), 0/15 (0%), 0%, not significant"
same,"tumour outcome (control, treated, inhibition, significance)","Carcinogen: N-NITROSOBIS(2-HYDROXYPROPYL)AMINE, 53609-64-6, Dose [Inhibitor]: 0, 400 PPM IN DIET FOR 27 WK BEGINNING 9 WK POST CARCINOGEN TREATMENT (STUDY DURATION: 37 WK), Species: RAT, Strain/Sex: F344/FEMALE, Target Tissue: Type of Lesion: THYROID GLAND: CARCINOMA, Dose [Carcinogen]: 2000 MG/KG BW 1 WK POST BILATERAL OVARIECTOMY, Promoter: SULFADIMETHOXINE, 122-11-2","10/12 (83%), 8/15 (53%), 36%, not significant"
NCCS(=O)(=O)O,"tumour outcome (control, treated, inhibition, significance)","Carcinogen: AZOXYMETHANE, 25843-45-2, Dose [Inhibitor]: 0, 600 PPM IN DIET BEGINNING 2 WK PRIOR TO CARCINOGEN TREATMENT AND CONTINUING FOR DURATION OF STUDY (STUDY DURATION: 56, Species: RAT, Strain/Sex: F344/MALE, Target Tissue: Type of Lesion: COLON: INVASIVE ADENOCARCINOMA, Dose [Carcinogen]: 15 MG/KG 1/WK FOR 2 WK, Promoter: NONE USED","34%, 16%, 53%, not significant"
same,"tumour outcome (control, treated, inhibition, significance)","Carcinogen: AZOXYMETHANE, 25843-45-2, Dose [Inhibitor]: 0, 600 PPM IN DIET BEGINNING 2 WK PRIOR TO CARCINOGEN TREATMENT AND CONTINUING FOR DURATION OF STUDY (STUDY DURATION: 56, Species: RAT, Strain/Sex: F344/MALE, Target Tissue: Type of Lesion: COLON: NONINVASIVE ADENOCARCINOMA, Dose [Carcinogen]: 15 MG/KG 1/WK FOR 2 WK, Promoter: NONE USED","53%, 61%, -15%, not significant"
same,"tumour outcome (control, treated, inhibition, significance)","Carcinogen: AZOXYMETHANE, 25843-45-2, Dose [Inhibitor]: 0, 1200 PPM IN DIET BEGINNING 2 WK PRIOR TO CARCINOGEN TREATMENT AND CONTINUING FOR DURATION OF STUDY (STUDY DURATION: 5, Species: RAT, Strain/Sex: F344/MALE, Target Tissue: Type of Lesion: COLON: INVASIVE ADENOCARCINOMA, Dose [Carcinogen]: 15 MG/KG 1/WK FOR 2 WK, Promoter: NONE USED","34%, 17%, 50%, not significant"
same,"tumour outcome (control, treated, inhibition, significance)","Carcinogen: AZOXYMETHANE, 25843-45-2, Dose [Inhibitor]: 0, 1200 PPM IN DIET BEGINNING 2 WK PRIOR TO CARCINOGEN TREATMENT AND CONTINUING FOR DURATION OF STUDY (STUDY DURATION: 5, Species: RAT, Strain/Sex: F344/MALE, Target Tissue: Type of Lesion: COLON: NONINVASIVE ADENOCARCINOMA, Dose [Carcinogen]: 15 MG/KG 1/WK FOR 2 WK, Promoter: NONE USED","53%, 47%, 11%, not significant"
same,"tumour outcome (control, treated, inhibition, significance)","Carcinogen: DIETHYLNITROSAMINE, 55-18-5, Dose [Inhibitor]: 0, 2000 PPM IN DIET FOR 3 WK DURING INITIATION PHASE (STUDY DURATION: 24 WK), Species: RAT, Strain/Sex: F344/MALE, Target Tissue: Type of Lesion: LIVER: HEPATOCELLULAR ADENOMA, Dose [Carcinogen]: 100 MG/KG BW 1/WK FOR 3 WK, Promoter: PHENOBARBITAL, 50-06-6","19/20 (95%), 12/19 (63%), 34%, p<0.02"
same,"tumour outcome (control, treated, inhibition, significance)","Carcinogen: DIETHYLNITROSAMINE, 55-18-5, Dose [Inhibitor]: 0, 2000 PPM IN DIET FOR 3 WK DURING INITIATION PHASE (STUDY DURATION: 24 WK), Species: RAT, Strain/Sex: F344/MALE, Target Tissue: Type of Lesion: LIVER: HEPATOCELLULAR CARCINOMA, Dose [Carcinogen]: 100 MG/KG BW 1/WK FOR 3 WK, Promoter: PHENOBARBITAL, 50-06-6","14/20 (70%), 13/19 (68%), 3%, not significant"
same,"tumour outcome (control, treated, inhibition, significance)","Carcinogen: DIETHYLNITROSAMINE, 55-18-5, Dose [Inhibitor]: 0, 2000 PPM IN DIET FOR 20 WK BEGINNING POST CARCINOGEN TREATMENT (STUDY DURATION: 24 WK), Species: RAT, Strain/Sex: F344/MALE, Target Tissue: Type of Lesion: LIVER: HEPATOCELLULAR ADENOMA, Dose [Carcinogen]: 100 MG/KG BW 1/WK FOR 3 WK, Promoter: NONE USED","3/24 (13%), 4/18 (22%), -69%, not significant"
same,"tumour outcome (control, treated, inhibition, significance)","Carcinogen: DIETHYLNITROSAMINE, 55-18-5, Dose [Inhibitor]: 0, 2000 PPM IN DIET FOR 20 WK BEGINNING POST CARCINOGEN TREATMENT (STUDY DURATION: 24 WK), Species: RAT, Strain/Sex: F344/MALE, Target Tissue: Type of Lesion: LIVER: HEPATOCELLULAR ADENOMA, Dose [Carcinogen]: 100 MG/KG BW 1/WK FOR 3 WK, Promoter: PHENOBARBITAL, 50-06-6","19/20 (95%), 7/21 (33%), 65%, p<0.0001"
same,"tumour outcome (control, treated, inhibition, significance)","Carcinogen: DIETHYLNITROSAMINE, 55-18-5, Dose [Inhibitor]: 0, 2000 PPM IN DIET FOR 20 WK BEGINNING POST CARCINOGEN TREATMENT (STUDY DURATION: 24 WK), Species: RAT, Strain/Sex: F344/MALE, Target Tissue: Type of Lesion: LIVER: HEPATOCELLULAR CARCINOMA, Dose [Carcinogen]: 100 MG/KG BW 1/WK FOR 3 WK, Promoter: NONE USED","7/24 (29%), 4/18 (22%), 24%, not significant"
same,"tumour outcome (control, treated, inhibition, significance)","Carcinogen: DIETHYLNITROSAMINE, 55-18-5, Dose [Inhibitor]: 0, 2000 PPM IN DIET FOR 20 WK BEGINNING POST CARCINOGEN TREATMENT (STUDY DURATION: 24 WK), Species: RAT, Strain/Sex: F344/MALE, Target Tissue: Type of Lesion: LIVER: HEPATOCELLULAR CARCINOMA, Dose [Carcinogen]: 100 MG/KG BW 1/WK FOR 3 WK, Promoter: PHENOBARBITAL, 50-06-6","14/20 (70%), 13/21 (62%), 11%, not significant"
COc1cc(C)c(/C=C/C(C)=C/C=C/C(C)=C/C(=O)O)c(C)c1C,"tumour outcome (control, treated, inhibition, significance)","Carcinogen: N-METHYL-N-NITROSOUREA, 684-93-5, Dose [Inhibitor]: 75 MG/KG DIET DAILY FOR 55 WK STARTING 1 WK AFTER LAST CARCINOGEN EXPOSURE (STUDY DURATION: 65 WK), Species: HAMSTER, Strain/Sex: SYRIAN/MALE, Target Tissue: Type of Lesion: TRACHEA: TUMOR, Dose [Carcinogen]: 1% FOR 7 SECONDS 2/WK FOR 9 WK, Promoter: NONE USED","30/37 (81%), 27/37 (73%), 10%, not significant"
same,"tumour outcome (control, treated, inhibition, significance)","Carcinogen: N-METHYL-N-NITROSOUREA, 684-93-5, Dose [Inhibitor]: 150 MG/KG DIET DAILY FOR 55 WK STARTING 1 WK AFTER LAST CARCINOGEN EXPOSURE (STUDY DURATION: 65 WK), Species: HAMSTER, Strain/Sex: SYRIAN/MALE, Target Tissue: Type of Lesion: TRACHEA: TUMOR, Dose [Carcinogen]: 1% FOR 7 SECONDS 2/WK FOR 9 WK, Promoter: NONE USED","30/37 (81%), 24/38 (63%), 22%, not significant"
same,"tumour outcome (control, treated, inhibition, significance)","Carcinogen: N-METHYL-N-NITROSOUREA, 684-93-5, Dose [Inhibitor]: 150 MG/KG DIET DAILY FOR 55 WK STARTING 1 WK AFTER LAST CARCINOGEN EXPOSURE (STUDY DURATION: 66 WK), Species: HAMSTER, Strain/Sex: SYRIAN/MALE, Target Tissue: Type of Lesion: TRACHEA: TUMOR, Dose [Carcinogen]: 1% FOR 7 SECONDS 2/WK FOR 10 WK, Promoter: NONE USED","32/38 (84%), 34/39 (87%), -4%, not significant"
same,"tumour outcome (control, treated, inhibition, significance)","Carcinogen: N-METHYL-N-NITROSOUREA, 684-93-5, Dose [Inhibitor]: 150 MG/KG DIET DAILY FOR 55 WK STARTING 1 WK AFTER LAST CARCINOGEN EXPOSURE (STUDY DURATION: 67.5 WK), Species: HAMSTER, Strain/Sex: SYRIAN/MALE, Target Tissue: Type of Lesion: TRACHEA: TUMOR, Dose [Carcinogen]: 1% FOR 7 SECONDS 2/WK FOR 11.5 WK, Promoter: NONE USED","24/40 (60%), 24/40 (60%), 0%, not significant"
